± gives the standard deviation of the averaged measurements.
What was measured:
Details in all cases: 72 h
U2OS [1] = assay: relative viability EC50 (midpoint between 100% and the lowest measured viability); higher = less toxic
Vero E6 [2] = assay: as above
Caco-2 [3] = assay: as above
Calu-3 [4] = assay: as above
U2OS [5] = assay: cell viability relative to DMSO; higher = less toxic
Vero E6 [6] = assay: as above
Caco-2 [7] = assay: as above
Calu-3 [8] = assay: as above
U2OS [9] = assay: drug sensitivity score (DSS) for viability; higher = more toxic; extreme values may be limits of the assay
Vero E6 [10] = assay: as above
Caco-2 [11] = assay: as above
Calu-3 [12] = assay: as above
HepG2 [13] = assay: cell viability relative to DMSO; higher = less toxic
HepG2 [14] = assay: drug sensitivity score (DSS) for viability; higher = more toxic; extreme values may be limits of the assay

| SMILES | relative viability EC50 (U2OS [1]) | relative viability EC50 (Vero E6 [2]) | relative viability EC50 (Caco-2 [3]) | relative viability EC50 (Calu-3 [4]) | cell viability (U2OS [5]; 1 nM) | cell viability (U2OS [5]; 10 nM) | cell viability (U2OS [5]; 100 nM) | cell viability (U2OS [5]; 1000 nM) | cell viability (U2OS [5]; 10000 nM) | cell viability (Vero E6 [6]; 1 nM) | cell viability (Vero E6 [6]; 10 nM) | cell viability (Vero E6 [6]; 100 nM) | cell viability (Vero E6 [6]; 1000 nM) | cell viability (Vero E6 [6]; 10000 nM) | cell viability (Caco-2 [7]; 1 nM) | cell viability (Caco-2 [7]; 10 nM) | cell viability (Caco-2 [7]; 100 nM) | cell viability (Caco-2 [7]; 1000 nM) | cell viability (Caco-2 [7]; 10000 nM) | cell viability (Calu-3 [8]; 1 nM) | cell viability (Calu-3 [8]; 10 nM) | cell viability (Calu-3 [8]; 100 nM) | cell viability (Calu-3 [8]; 1000 nM) | cell viability (Calu-3 [8]; 10000 nM) | drug sensitivity score (U2OS [9]) | drug sensitivity score (Vero E6 [10]) | drug sensitivity score (Caco-2 [11]) | drug sensitivity score (Calu-3 [12]) | cell viability (HepG2 [13]; 1 nM) | cell viability (HepG2 [13]; 10 nM) | cell viability (HepG2 [13]; 100 nM) | cell viability (HepG2 [13]; 1000 nM) | cell viability (HepG2 [13]; 10000 nM) | drug sensitivity score (HepG2 [14]) |
| --- | --- | --- | --- | --- | --- | --- | --- | --- | --- | --- | --- | --- | --- | --- | --- | --- | --- | --- | --- | --- | --- | --- | --- | --- | --- | --- | --- | --- | --- | --- | --- | --- | --- | --- |
| COC(=O)N[C@H](C(=O)N[C@@H](Cc1ccccc1)[C@@H](O)CN(Cc1ccc(-c2ccccn2)cc1)NC(=O)[C@@H](NC(=O)OC)C(C)(C)C)C(C)(C)C [atazanavir] | > 10 µM | > 10 µM | > 10 µM | > 10 µM | 111% | 97.1% | 102% | 94% | 99.1% | 96.3% | 102% | 90.2% | 99.6% | 112% | 90.5% | 112% | 92.9% | 84.8% | 80.1% | 99.3% | 99.7% | 91.4% | 91% | 97.1% | 0 | 0 | 2.3 | 0 |  |  |  |  |  |  |
| CCOc1ccc(Cc2nccc3cc(OCC)c(OCC)cc23)cc1OCC [ethaverine] | > 10 µM | > 10 µM | > 10 µM |  | 93.3% | 106% | 95.4% | 96.6% | 86.1% | 116% | 90.6% | 103% | 95.2% | 90.9% | 89.5% | 87.4% | 90.3% | 82.9% | 77.3% | 98.8% | 100% | 101% | 105% | 69.3% | 0.3 | 0 | 3.6 | 1.1 | 86.2% | 91.2% | 105% | 76.5% | 57.3% | 5.1 |
| C[C@H]1[C@H](C)CC[C@]2(C(=O)O)CC[C@]3(C)C(=CC[C@@H]4[C@@]5(C)C[C@@H](O)[C@H](O)C(C)(C)[C@@H]5CC[C@]43C)[C@H]12 [corosolic-acid] |  | > 10 µM | > 10 µM | > 10 µM |  |  |  |  |  | 101% | 104% | 99.7% | 104% | 103% | 107% | 110% | 102% | 108% | 99.6% | 96.8% | 106% | 103% | 95.3% | 99.8% |  | 0 | 0 | 0 |  |  |  |  |  |  |
| N#Cc1c(O)c2c(-c3ccc(-c4ccccc4O)cc3)csc2[nH]c1=O | > 10 µM | > 10 µM | > 10 µM | > 10 µM | 103% | 108% | 99.8% | 106% | 99.1% | 105% | 101% | 97.3% | 95.4% | 99% | 97.8% | 102% | 95.2% | 98.8% | 96.5% | 94.3% | 94.8% | 96.7% | 95.5% | 104% | 0 | 0 | 0 | 0 |  |  |  |  |  |  |
| OC[C@H]1O[C@@H](O[C@@H]2[C@@H](CO)OC(O)(CO)[C@H]2O)[C@H](O)[C@@H](O)[C@H]1O (mixture of isomers) [lactulose] |  | > 10 µM | > 10 µM | > 10 µM |  |  |  |  |  | 94.1% | 97.7% | 89.1% | 94.6% | 110% | 100% | 98.2% | 101% | 104% | 106% | 107% | 112% | 99.1% | 104% | 101% |  | 0 | 0 | 0 |  |  |  |  |  |  |
| CN1c2cc3c(cc2N=C(c2ccc(C(=O)O)cc2)c2ccccc21)C(C)(C)CCC3(C)C [LE-135] |  | > 10 µM |  | > 10 µM | 101% | 106% | 100% | 97.8% | 57.2% | 99% | 102% | 98.2% | 87.3% | 78.7% | 88.8% | 100% | 101% | 89.7% | 60.1% | 108% | 108% | 91.2% | 102% | 98.5% | 2.5 | 1.7 | 3.6 | 0 | 85.1% | 104% | 86.8% | 87.6% | 74% | 2.4 |
| CCC(CC)C(c1ccc(Nc2nc3ccccc3s2)cc1)n1cncn1 (stereo not drawn) [talarozole] | > 10 µM | > 10 µM |  | > 10 µM | 104% | 104% | 101% | 102% | 93.3% | 108% | 101% | 99.3% | 99.1% | 105% | 94.1% | 104% | 96% | 103% | 67.8% | 100% | 104% | 103% | 109% | 104% | 0 | 0 | 1.2 | 0 | 92.3% | 92.5% | 104% | 102% | 63.7% | 1.6 |
| C[C@@H](N)[C@@H](O)c1ccccc1 [1S,2R-phenylpropanolamine] |  | > 10 µM | > 10 µM | > 10 µM |  |  |  |  |  | 101% | 101% | 101% | 103% | 97.7% | 98.5% | 107% | 97.4% | 102% | 110% | 106% | 106% | 98.8% | 102% | 99.7% |  | 0 | 0 | 0 |  |  |  |  |  |  |
| Cc1cc(NS(=O)(=O)c2ccc(N)cc2)no1 [sulfamethoxazole] |  |  |  |  |  |  |  |  |  |  |  |  |  |  |  |  |  |  |  |  |  |  |  |  | 0 |  |  | 0 |  |  |  |  |  | 0 |
| COC(=O)C1=CCCN(C)C1 [arecoline] |  |  |  |  |  |  |  |  |  |  |  |  |  |  |  |  |  |  |  |  |  |  |  |  | 0 |  |  | 0.6 |  |  |  |  |  | 0 |
| CN1CCN(CCOc2cc(OC3CCOCC3)c3c(Nc4c(Cl)ccc5c4OCO5)ncnc3c2)CC1 [saracatinib] | 1.09 µM | 1.37 µM |  | 0.7 µM | 98.6% | 102% | 88.8% | 78.9% | 47.5% | 97.5% | 97.1% | 102% | 75.2% | 21% | 107% | 102% | 102% | 84.4% | 63.8% | 87.7% | 116% | 95% | 42.3% | 9.6% | 5.2 | 8 | 3.8 | 12 | 100% | 101% | 107% | 80.2% | 72.1% | 3.3 |
| C/C=C(/C)C(=O)O[C@H]1C(C)=C[C@]23C(=O)[C@@H](C=C(CO)[C@@H](O)[C@]12O)[C@H]1[C@@H](C[C@H]3C)C1(C)C [ingenol-mebutate] | > 10 µM |  | > 10 µM | > 10 µM | 101% | 88.5% | 75.2% | 89.1% | 93.4% | 99.2% | 83.9% | 54.7% | 53% | 51.7% | 109% | 110% | 89.8% | 81.8% | 84.6% | 117% | 110% | 96.6% | 102% | 105% | 0.8 | 16.5 | 3.2 | 0 | 102% | 86.4% | 66.4% | 70.7% | 77.7% | 12 |
| CC1COc2c(N3CCN(C)CC3)c(F)cc3c(=O)c(C(=O)O)cn1c23 (stereo not drawn) [ofloxacin] |  |  |  |  |  |  |  |  |  |  |  |  |  |  |  |  |  |  |  |  |  |  |  |  | 0 | 0 |  | 0 |  |  |  |  |  | 0.85 ± 1.2 |
| Cn1ncnc1[C@H]1c2n[nH]c(=O)c3cc(F)cc(c23)N[C@@H]1c1ccc(F)cc1 [talazoparib] |  |  | > 10 µM |  |  |  |  |  |  | 95.1% | 97.6% | 77.6% | 66.3% | 54.5% | 105% | 96.3% | 93.7% | 82.7% | 85.9% | 105% | 84.3% | 93.3% | 68.9% | 58.2% |  | 8.7 | 2.1 | 6.3 | 98.8% | 89.3% | 77.3% | 71.4% | 50.1% | 8.5 |

Reference: the supplement of paper PMC13380429
